Results as given in PubChem BioAssay AID248 (DTP/NCI, 2004).
Values joined by “and” are separate entries in the source; they are usually repeats but may differ in a detail not shown here. Equal entries are not always repeated. Toxic doses and inconclusive results are not listed. Rule as the data show it: active = T/C of 150% or more; inactive = T/C below 125%.

Test system: L1210 leukemia ip in BDF1 mice, survival T/C
Assay: NCI In Vivo Anticancer Drug Screen. Data for tumor model L1210 Leukemia (intraperitoneal) in B6D2F1 (BDF1) mice
Settings: endpoint: mean survival time, higher = longer survival
Method in brief: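 Mice bearing the transplanted tumor received compound or vehicle. Survival of the treated group was divided by that of the vehicle-treated control group to give the ratio.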

[1] = dose: 12.5 mg/kg/injection, schedule: Q01DX009 (ip), vehicle: saline with Tween-80
[2] = dose: 25.0 mg/kg/injection, schedule: Q01DX009 (ip), vehicle: saline with Tween-80
[3] = dose: 50.0 mg/kg/injection, schedule: Q01DX009 (ip), vehicle: saline with Tween-80
[4] = dose: 100.0 mg/kg/injection, schedule: Q01DX009 (ip), vehicle: saline with Tween-80
[5] = dose: 100.0 mg/kg/injection, schedule: Q01DX001 (ip), vehicle: carboxymethylcellulose (CMC)
[6] = dose: 200.0 mg/kg/injection, schedule: Q01DX001 (ip), vehicle: carboxymethylcellulose (CMC)
[7] = dose: 400.0 mg/kg/injection, schedule: Q01DX001 (ip), vehicle: carboxymethylcellulose (CMC)
[8] = dose: 100.0 mg/kg/injection, schedule: Q04DX003 (ip), vehicle: saline with Tween-80
[9] = dose: 200.0 mg/kg/injection, schedule: Q04DX003 (ip), vehicle: saline with Tween-80
[10] = dose: 400.0 mg/kg/injection, schedule: Q04DX003 (ip), vehicle: saline with Tween-80
[11] = dose: 100.0 mg/kg/injection, schedule: Q01DX001 (ip), vehicle: saline
[12] = dose: 200.0 mg/kg/injection, schedule: Q01DX001 (ip), vehicle: saline
[13] = dose: 400.0 mg/kg/injection, schedule: Q01DX001 (ip), vehicle: saline
[14] = dose: 200.0 mg/kg/injection, schedule: Q01DX009 (ip), vehicle: saline with Tween-80
[15] = dose: 400.0 mg/kg/injection, schedule: Q01DX009 (ip), vehicle: saline with Tween-80
[16] = dose: 200.0 mg/kg/injection, schedule: Q01DX001 (ip), vehicle: Klucel (hydroxypropylcellulose) (HPC)
[17] = dose: 50.0 mg/kg/injection, schedule: Q01DX009 (ip), vehicle: saline
[18] = dose: 100.0 mg/kg/injection, schedule: Q01DX001 (ip), vehicle: saline with Tween-80
[19] = dose: 200.0 mg/kg/injection, schedule: Q01DX001 (ip), vehicle: saline with Tween-80
[20] = dose: 400.0 mg/kg/injection, schedule: Q01DX001 (ip), vehicle: saline with Tween-80
[21] = dose: 50.0 mg/kg/injection, schedule: Q04DX003 (ip), vehicle: Klucel (hydroxypropylcellulose) (HPC)
[22] = dose: 100.0 mg/kg/injection, schedule: Q04DX003 (ip), vehicle: Klucel (hydroxypropylcellulose) (HPC)

Measured: T/C

CCCCN(C)N=Nc1cn(C2OC(CO)C(O)C2O)c(=O)[nH]c1=O (centres undefined)
inactive: dose: 100.0 mg/kg/injection, schedule: Q01DX009 (ip), vehicle: water 112 % of control | dose: 100.0 mg/kg/injection, schedule: Q04DX003 (ip), vehicle: water 96 % of control | dose: 200.0 mg/kg/injection, schedule: Q01DX009 (ip), vehicle: water 106 % of control | dose: 200.0 mg/kg/injection, schedule: Q04DX003 (ip), vehicle: water 102 % of control | dose: 400.0 mg/kg/injection, schedule: Q01DX009 (ip), vehicle: water 117 % of control | dose: 400.0 mg/kg/injection, schedule: Q04DX003 (ip), vehicle: water 107 % of control

CCCCCCCCCCCCSC1=C(Cl)C(=O)C(OC)=C(OC)C1=O
inactive: dose: 3.12 mg/kg/injection, schedule: Q01DX009 (ip), vehicle: saline with Tween-80 100 % of control | dose: 6.25 mg/kg/injection, schedule: Q01DX009 (ip), vehicle: saline with Tween-80 93 % of control | [1] 94 % of control | [2] 96 % of control | [3] 100 % of control | [4] 94 % of control

NC(=O)/C=C\c1csc2ccccc12
inactive: [5] 100 % of control | [6] 94 % of control | [7] 94 % of control

CC(C)CCOC(c1ccc2c(c1)OCO2)C(C)Br (centres undefined)
inactive: [8] 94 % of control | [9] 87 % of control | [10] 94 % of control

Nc1nc2nc(-c3ccc([N+](=O)[O-])cc3)nc(N)c2nc1-c1ccc(N(CCCl)CCCl)cc1
inactive: [11] 96 % of control | [12] 95 % of control | [13] 101 % of control

C1=CC2CC1CC2CNCCN1CC1 (centres undefined)
inactive: dose: 10.0 mg/kg/injection, schedule: Q04DX003 (ip), vehicle: saline 106 % of control | dose: 20.0 mg/kg/injection, schedule: Q04DX003 (ip), vehicle: saline 87 % of control

COc1ccc(CC(=O)NCCN(CCN(CCO)C(=O)Cc2ccc(OC)cc2)C(=O)Cc2ccc(OC)cc2)cc1
inactive: [4] 95 % of control | [8] 100 % of control | [14] 90 % of control | [9] 102 % of control | [15] 91 % of control | [10] 94 % of control

O=C(C[n+]1cccc2ccccc21)c1ccc(-c2ccccc2)cc1
inactive: [16] 96 % of control

N=c1c2ccccc2c2ccccc2n1O
inactive: [8] 96 % of control | [9] 98 % of control | [10] 103 % of control

CN(C)C
inactive: [17] 101 % of control | dose: 100.0 mg/kg/injection, schedule: Q04DX002 (ip), vehicle: saline 105 % of control | dose: 100.0 mg/kg/injection, schedule: Q04DX003 (ip), vehicle: saline 98 % of control | dose: 200.0 mg/kg/injection, schedule: Q04DX002 (ip), vehicle: saline 97 % of control | dose: 200.0 mg/kg/injection, schedule: Q04DX003 (ip), vehicle: saline 94 % of control

CCC(CO)NC(=O)/C=C/c1ccc(Cl)cc1 (centres undefined)
inactive: [18] 101 % of control | [8] 110 % of control | [19] 100 % of control | [9] 108 % of control | [20] 92 % of control | [10] 98 % of control

CCOC(=O)NNC(=O)OCC
inactive: [1] 100 % of control | [2] 97 % of control | dose: 25.0 mg/kg/injection, schedule: Q04DX003 (ip), vehicle: Klucel (hydroxypropylcellulose) (HPC) 97 % of control | [3] 96 % of control and 86 % of control | [21] 98 % of control | dose: 75.0 mg/kg/injection, schedule: Q01DX001 (ip), vehicle: acetone 97 % of control | [4] 92 % of control | [22] 91 % of control | dose: 150.0 mg/kg/injection, schedule: Q01DX001 (ip), vehicle: acetone 108 % of control

Cc1ccc(S(=O)(=O)OC(c2ccccc2)c2ccccc2)cc1
inactive: dose: 25.0 mg/kg/injection, schedule: Q04DX002 (ip), vehicle: Klucel (hydroxypropylcellulose) (HPC) 97 % of control | dose: 50.0 mg/kg/injection, schedule: Q04DX002 (ip), vehicle: Klucel (hydroxypropylcellulose) (HPC) 97 % of control | dose: 100.0 mg/kg/injection, schedule: Q04DX002 (ip), vehicle: Klucel (hydroxypropylcellulose) (HPC) 93 % of control

COc1ccc(OC)c2c1C(=O)c1ccccc1C2=O
inactive: [2] 107 % of control | dose: 50.0 mg/kg/injection, schedule: Q01DX001 (ip), vehicle: carboxymethylcellulose (CMC) 102 % of control | [3] 104 % of control | [5] 108 % of control | [4] 104 % of control | [6] 102 % of control | [14] 107 % of control | [7] 113 % of control | [15] 111 % of control

CCOC(=S)c1ccc(NS(=O)(=O)c2ccc(C)cc2)cc1
inactive: [18] 100 % of control | [19] 107 % of control | [20] 102 % of control

O=C(CBr)c1cc2ncccc2c2ccccc12
inactive: dose: 12.5 mg/kg/injection, schedule: Q01DX009 (ip), vehicle: other 90 % of control | dose: 25.0 mg/kg/injection, schedule: Q01DX009 (ip), vehicle: other 94 % of control | dose: 50.0 mg/kg/injection, schedule: Q01DX009 (ip), vehicle: other 102 % of control

COc1ccc(S(=O)(=O)c2ccc(F)cc2)cc1
inactive: [21] 95 % of control | dose: 100.0 mg/kg/injection, schedule: Q01DX001 (ip), vehicle: other 98 % of control | [22] 103 % of control | dose: 200.0 mg/kg/injection, schedule: Q01DX001 (ip), vehicle: other 110 % of control | dose: 200.0 mg/kg/injection, schedule: Q04DX003 (ip), vehicle: Klucel (hydroxypropylcellulose) (HPC) 104 % of control | dose: 400.0 mg/kg/injection, schedule: Q01DX001 (ip), vehicle: other 95 % of control

CC(C)OP1(=O)OCC(C)O1 (centres undefined)
inactive: [11] 102 % of control | [12] 98 % of control | [13] 102 % of control

Nc1cccc(OCCCn2cc(-c3ccc(Cl)c(Cl)c3)c(N)nc2=O)c1
inactive: dose: 100.0 mg/kg/injection, schedule: Q01DX001 (ip), vehicle: Klucel (hydroxypropylcellulose) (HPC) 99 % of control | [16] 92 % of control | dose: 400.0 mg/kg/injection, schedule: Q01DX001 (ip), vehicle: Klucel (hydroxypropylcellulose) (HPC) 100 % of control

COc1ccc(NC2=CC(=O)C(=O)c3ccccc32)nn1
inactive: [11] 91 % of control | [12] 89 % of control | [13] 95 % of control

CC[N+](C)(CC)CC1CC(C)OC1=O (centres undefined)
inactive: [17] 95 % of control | dose: 100.0 mg/kg/injection, schedule: Q01DX009 (ip), vehicle: saline 109 % of control | dose: 200.0 mg/kg/injection, schedule: Q01DX009 (ip), vehicle: saline 98 % of control
